Source: patent US20130096170A1 (priority 2011, published 2013)
Like-named read-outs stand apart in the source and are kept apart here.

Assays:
[1] = clinical; details: human
[2] = Dose Level 1, LD 0.25/CD 0.2 μg/kg/hr, full evaluable population
[3] = Dose Level 2, LD 0.50/CD 0.4 μg/kg/hr, full evaluable population
[4] = Dose Level 3, LD 1.00/CD 0.7 μg/kg/hr, full evaluable population
[5] = Dose Level 4, LD 1.00/CD 2.00 μg/kg/hr, full evaluable population
[6] = Table 30 key summary (mean), Dose Level 1, LD 0.25/CD 0.2 μg/kg/hr, full evaluable population
[7] = Table 30 key summary (mean), Dose Level 2, LD 0.50/CD 0.4 μg/kg/hr, full evaluable population
[8] = Table 30 key summary (mean), Dose Level 3, LD 1.00/CD 0.7 μg/kg/hr, full evaluable population
[9] = Table 30 key summary (mean), Dose Level 4, LD 1.00/CD 2.00 μg/kg/hr, full evaluable population

For `Cc1cccc([C@H](C)c2cnc[nH]2)c1C` [dexmedetomidine], the “Css Mean” value [2] was 402.026 µg/mL, the “Css Median” value [2] was 197.991 µg/mL and the “λz Mean” value [2] was 0.469 h⁻¹. The “λz Median” value [2] was 0.446 h⁻¹, the “Css Mean” value [3] was 539.848 µg/mL and the “Css Median” value [3] was 513.902 µg/mL. For the same compound, the “λz Mean” value [3] was 0.408 h⁻¹, the “λz Median” value [3] was 0.411 h⁻¹ and the “Css Mean” value [4] was 1347.284 µg/mL. The “Css Median” value [4] was 947.907 µg/mL, the “λz Mean” value [4] was 0.369 h⁻¹ and the “λz Median” value [4] was 0.386 h⁻¹. For the same compound, the “Css Mean” value [5] was 2827.144 µg/mL, the “Css Median” value [5] was 2665.409 µg/mL and the “λz Mean” value [5] was 0.360 h⁻¹. The “λz Median” value [5] was 0.326 h⁻¹, the Css [6] was 0.402 ng/mL and the λz [6] was 0.5 h⁻¹. For the same compound, the Css [7] was 0.5398 ng/mL, the λz [7] was 0.4 h⁻¹ and the Css [8] was 1.3473 ng/mL. For the same compound, the λz [8] was 0.4 h⁻¹, the Css [9] was 2.8271 ng/mL and the λz [9] was 0.4 h⁻¹. For the same compound, the Css (human, in vivo) was 5.74355e+09 ng/mL, the “dose proportionality of AUC and Cmax” value (human, in vivo) was “dose proportionality and a linear relationship” and the Vd ([1]; in vivo) was 43 L. For the same compound, the AUC(0-t) ([1]; in vivo, AUC0-t) was 117 ng·h/mL, the AUC(0-inf) ([1]; in vivo, AUC0-∞) was 117 ng·h/mL and the Cmax ([1]; in vivo, Cmax) was 28.8 ng/mL. For the same compound, the clearance ([1]; in vivo, weight-adjusted clearance) was ~16.7 mL/min/kg, the clearance ([1]; plasma, intravenous, 0.2 ug/kg, CL, Group I (≥2 to <6 y), Dose Level 1 (LD 0.25/CD 0.2 μg/kg/hr), geometric mean, full evaluable population) was 271 mL/min and the clearance ([1]; plasma, intravenous, 0.2 ug/kg, CL, Group II (≥6 to <17 y), Dose Level 1 (LD 0.25/CD 0.2 μg/kg/hr), geometric mean, full evaluable population) was 412 mL/min. The Vd ([1]; plasma, intravenous, 0.2 ug/kg, Vd, Group I (≥2 to <6 y), Dose Level 1 (LD 0.25/CD 0.2 μg/kg/hr), geometric mean, full evaluable population) was 36.9 L, the Vd ([1]; plasma, intravenous, 0.2 ug/kg, Vd, Group II (≥6 to <17 y), Dose Level 1 (LD 0.25/CD 0.2 μg/kg/hr), geometric mean, full evaluable population) was 51.7 L and the clearance ([1]; plasma, intravenous, 0.4 ug/kg, CL, Group I (≥2 to <6 y), Dose Level 2 (LD 0.50/CD 0.4 μg/kg/hr), geometric mean, full evaluable population) was 212 mL/min. It also gave a clearance ([1]; plasma, intravenous, 0.4 ug/kg, CL, Group II (≥6 to <17 y), Dose Level 2 (LD 0.50/CD 0.4 μg/kg/hr), geometric mean, full evaluable population) of 413 mL/min, a Vd ([1]; plasma, intravenous, 0.4 ug/kg, Vd, Group I (≥2 to <6 y), Dose Level 2 (LD 0.50/CD 0.4 μg/kg/hr), geometric mean, full evaluable population) of 31.8 L and a Vd ([1]; plasma, intravenous, 0.4 ug/kg, Vd, Group II (≥6 to <17 y), Dose Level 2 (LD 0.50/CD 0.4 μg/kg/hr), geometric mean, full evaluable population) of 61.2 L. It also gave a clearance ([1]; plasma, intravenous, 0.7 ug/kg, CL, Group I (≥2 to <6 y), Dose Level 3 (LD 1.00/CD 0.7 μg/kg/hr), geometric mean, full evaluable population) of 276 mL/min, a clearance ([1]; plasma, intravenous, 0.7 ug/kg, CL, Group II (≥6 to <17 y), Dose Level 3 (LD 1.00/CD 0.7 μg/kg/hr), geometric mean, full evaluable population) of 274 mL/min and a Vd ([1]; plasma, intravenous, 0.7 ug/kg, Vd, Group I (≥2 to <6 y), Dose Level 3 (LD 1.00/CD 0.7 μg/kg/hr), geometric mean, full evaluable population) of 46.6 L. The Vd ([1]; plasma, intravenous, 0.7 ug/kg, Vd, Group II (≥6 to <17 y), Dose Level 3 (LD 1.00/CD 0.7 μg/kg/hr), geometric mean, full evaluable population) was 46.6 L, the clearance ([1]; plasma, intravenous, 2 ug/kg, CL, Group I (≥2 to <6 y), Dose Level 4 (LD 1.00/CD 2.00 μg/kg/hr), geometric mean, full evaluable population) was 199 mL/min and the clearance ([1]; plasma, intravenous, 2 ug/kg, CL, Group II (≥6 to <17 y), Dose Level 4 (LD 1.00/CD 2.00 μg/kg/hr), geometric mean, full evaluable population) was 423 mL/min. It also gave a Vd ([1]; plasma, intravenous, 2 ug/kg, Vd, Group I (≥2 to <6 y), Dose Level 4 (LD 1.00/CD 2.00 μg/kg/hr), geometric mean, full evaluable population) of 36.3 L, a Vd ([1]; plasma, intravenous, 2 ug/kg, Vd, Group II (≥6 to <17 y), Dose Level 4 (LD 1.00/CD 2.00 μg/kg/hr), geometric mean, full evaluable population) of 72.8 L and an AUC(0-t) ([1]; plasma, intravenous, AUC0-t Mean, Dose Level 1, LD 0.25/CD 0.2 μg/kg/hr, full evaluable population) of 2.68 ng·h/mL. The AUC(0-t) ([1]; plasma, intravenous, AUC0-t Mean, Dose Level 2, LD 0.50/CD 0.4 μg/kg/hr, full evaluable population) was 6.46 ng·h/mL, the AUC(0-t) ([1]; plasma, intravenous, AUC0-t Mean, Dose Level 3, LD 1.00/CD 0.7 μg/kg/hr, full evaluable population) was 17 ng·h/mL and the AUC(0-t) ([1]; plasma, intravenous, AUC0-t Mean, Dose Level 4, LD 1.00/CD 2.00 μg/kg/hr, full evaluable population) was 28.5 ng·h/mL. The AUC(0-t) ([1]; plasma, intravenous, AUC0-t Median, Dose Level 1, LD 0.25/CD 0.2 μg/kg/hr, full evaluable population) was 1.54 ng·h/mL, the AUC(0-t) ([1]; plasma, intravenous, AUC0-t Median, Dose Level 2, LD 0.50/CD 0.4 μg/kg/hr, full evaluable population) was 5.25 ng·h/mL and the AUC(0-t) ([1]; plasma, intravenous, AUC0-t Median, Dose Level 3, LD 1.00/CD 0.7 μg/kg/hr, full evaluable population) was 5.61 ng·h/mL. It also gave an AUC(0-t) ([1]; plasma, intravenous, AUC0-t Median, Dose Level 4, LD 1.00/CD 2.00 μg/kg/hr, full evaluable population) of 25.4 ng·h/mL, an AUC(0-t) ([1]; plasma, intravenous, AUC0-t, Table 30 key summary (mean), Dose Level 1, LD 0.25/CD 0.2 μg/kg/hr, full evaluable population) of 2.68 ng·h/mL and an AUC(0-t) ([1]; plasma, intravenous, AUC0-t, Table 30 key summary (mean), Dose Level 2, LD 0.50/CD 0.4 μg/kg/hr, full evaluable population) of 6.46 ng·h/mL. It also gave an AUC(0-t) ([1]; plasma, intravenous, AUC0-t, Table 30 key summary (mean), Dose Level 3, LD 1.00/CD 0.7 μg/kg/hr, full evaluable population) of 17 ng·h/mL, an AUC(0-t) ([1]; plasma, intravenous, AUC0-t, Table 30 key summary (mean), Dose Level 4, LD 1.00/CD 2.00 μg/kg/hr, full evaluable population) of 28.5 ng·h/mL and an AUC(0-inf) ([1]; plasma, intravenous, AUC0-∞ Mean, Dose Level 1, LD 0.25/CD 0.2 μg/kg/hr, full evaluable population) of 3.15 ng·h/mL. For the same compound, the AUC(0-inf) ([1]; plasma, intravenous, AUC0-∞ Mean, Dose Level 2, LD 0.50/CD 0.4 μg/kg/hr, full evaluable population) was 6.67 ng·h/mL, the AUC(0-inf) ([1]; plasma, intravenous, AUC0-∞ Mean, Dose Level 3, LD 1.00/CD 0.7 μg/kg/hr, full evaluable population) was 17.3 ng·h/mL and the AUC(0-inf) ([1]; plasma, intravenous, AUC0-∞ Mean, Dose Level 4, LD 1.00/CD 2.00 μg/kg/hr, full evaluable population) was 29 ng·h/mL. The AUC(0-inf) ([1]; plasma, intravenous, AUC0-∞ Median, Dose Level 1, LD 0.25/CD 0.2 μg/kg/hr, full evaluable population) was 1.58 ng·h/mL, the AUC(0-inf) ([1]; plasma, intravenous, AUC0-∞ Median, Dose Level 2, LD 0.50/CD 0.4 μg/kg/hr, full evaluable population) was 5.52 ng·h/mL and the AUC(0-inf) ([1]; plasma, intravenous, AUC0-∞ Median, Dose Level 3, LD 1.00/CD 0.7 μg/kg/hr, full evaluable population) was 6.08 ng·h/mL. It also gave an AUC(0-inf) ([1]; plasma, intravenous, AUC0-∞ Median, Dose Level 4, LD 1.00/CD 2.00 μg/kg/hr, full evaluable population) of 25.7 ng·h/mL, an AUC(0-inf) ([1]; plasma, intravenous, AUC0-∞, Table 30 key summary (mean), Dose Level 1, LD 0.25/CD 0.2 μg/kg/hr, full evaluable population) of 3.15 ng·h/mL and an AUC(0-inf) ([1]; plasma, intravenous, AUC0-∞, Table 30 key summary (mean), Dose Level 2, LD 0.50/CD 0.4 μg/kg/hr, full evaluable population) of 6.67 ng·h/mL. It also gave an AUC(0-inf) ([1]; plasma, intravenous, AUC0-∞, Table 30 key summary (mean), Dose Level 3, LD 1.00/CD 0.7 μg/kg/hr, full evaluable population) of 17.3 ng·h/mL, an AUC(0-inf) ([1]; plasma, intravenous, AUC0-∞, Table 30 key summary (mean), Dose Level 4, LD 1.00/CD 2.00 μg/kg/hr, full evaluable population) of 29 ng·h/mL and a clearance ([1]; plasma, intravenous, CL Mean, Dose Level 1, LD 0.25/CD 0.2 μg/kg/hr, full evaluable population) of 537 mL/min. The clearance ([1]; plasma, intravenous, CL Mean, Dose Level 2, LD 0.50/CD 0.4 μg/kg/hr, full evaluable population) was 338 mL/min, the clearance ([1]; plasma, intravenous, CL Mean, Dose Level 3, LD 1.00/CD 0.7 μg/kg/hr, full evaluable population) was 309 mL/min and the clearance ([1]; plasma, intravenous, CL Mean, Dose Level 4, LD 1.00/CD 2.00 μg/kg/hr, full evaluable population) was 370 mL/min. For the same compound, the clearance ([1]; plasma, intravenous, CL Median, Dose Level 1, LD 0.25/CD 0.2 μg/kg/hr, full evaluable population) was 326 mL/min, the clearance ([1]; plasma, intravenous, CL Median, Dose Level 2, LD 0.50/CD 0.4 μg/kg/hr, full evaluable population) was 267 mL/min and the clearance ([1]; plasma, intravenous, CL Median, Dose Level 3, LD 1.00/CD 0.7 μg/kg/hr, full evaluable population) was 270 mL/min. The clearance ([1]; plasma, intravenous, CL Median, Dose Level 4, LD 1.00/CD 2.00 μg/kg/hr, full evaluable population) was 282 mL/min, the clearance ([1]; plasma, intravenous, CL, Table 30 key summary (mean), Dose Level 1, LD 0.25/CD 0.2 μg/kg/hr, full evaluable population) was 537 mL/min and the clearance ([1]; plasma, intravenous, CL, Table 30 key summary (mean), Dose Level 2, LD 0.50/CD 0.4 μg/kg/hr, full evaluable population) was 338 mL/min. It also gave a clearance ([1]; plasma, intravenous, CL, Table 30 key summary (mean), Dose Level 3, LD 1.00/CD 0.7 μg/kg/hr, full evaluable population) of 310 mL/min, a clearance ([1]; plasma, intravenous, CL, Table 30 key summary (mean), Dose Level 4, LD 1.00/CD 2.00 μg/kg/hr, full evaluable population) of 370 mL/min and a Cmax ([1]; plasma, intravenous, Cmax Mean, Dose Level 1, LD 0.25/CD 0.2 μg/kg/hr, full evaluable population) of 0.48 ng/mL. For the same compound, the Cmax ([1]; plasma, intravenous, Cmax Mean, Dose Level 2, LD 0.50/CD 0.4 μg/kg/hr, full evaluable population) was 0.848 ng/mL, the Cmax ([1]; plasma, intravenous, Cmax Mean, Dose Level 3, LD 1.00/CD 0.7 μg/kg/hr, full evaluable population) was 3.39 ng/mL and the Cmax ([1]; plasma, intravenous, Cmax Mean, Dose Level 4, LD 1.00/CD 2.00 μg/kg/hr, full evaluable population) was 3.09 ng/mL. The Cmax ([1]; plasma, intravenous, Cmax Median, Dose Level 1, LD 0.25/CD 0.2 μg/kg/hr, full evaluable population) was 0.266 ng/mL.
